Measured values reported in the NIST ThermoML archive (doi:10.1016/j.jct.2005.06.001).
Several values for one entry are separate records, joined by “and”; a condition that tells them apart may be missing. Identical values can stand only once.

Conditions: Crystal; for vapor or sublimation pressure: Calculated from knudsen effusion weight loss; for Normal melting temperature: visual observation

CCc1ccc2cc3ccccc3cc2c1 [2-ethylanthracene]
Conditions	Normal melting temperature [°C]	vapor or sublimation pressure
–	154.5	–
343.27 K	–	0.000164 kPa and 0.000165 kPa
345.13 K	–	0.000203 kPa and 0.0002 kPa
347.1 K	–	0.000239 kPa and 0.000235 kPa and 0.000241 kPa
349.26 K	–	0.000306 kPa and 0.000309 kPa and 0.000301 kPa
351.15 K	–	0.000378 kPa and 0.000372 kPa and 0.00037 kPa
353.11 K	–	0.000465 kPa and 0.000456 kPa and 0.000458 kPa
355.27 K	–	0.00056 kPa and 0.000562 kPa and 0.000569 kPa
357.07 K	–	0.000684 kPa and 0.000668 kPa
359.05 K	–	0.000828 kPa and 0.000833 kPa and 0.000824 kPa

Cc1c2ccccc2c(C)c2ccccc12 [9,10-dimethylanthracene]
Conditions	Normal melting temperature [°C]	vapor or sublimation pressure
–	186.4	–
363.18 K	–	0.000229 kPa and 0.000242 kPa and 0.000213 kPa
365.2 K	–	0.000287 kPa and 0.000302 kPa and 0.000271 kPa
367.18 K	–	0.000344 kPa and 0.00036 kPa and 0.000332 kPa
369.18 K	–	0.000444 kPa and 0.00041 kPa and 0.000425 kPa
371.2 K	–	0.000498 kPa and 0.00053 kPa and 0.000494 kPa
373.19 K	–	0.000613 kPa and 0.000654 kPa and 0.00061 kPa
375.18 K	–	0.000736 kPa and 0.000761 kPa and 0.00071 kPa
377.17 K	–	0.00088 kPa and 0.000913 kPa and 0.000841 kPa
378.98 K	–	0.001057 kPa and 0.001092 kPa and 0.001008 kPa

Cc1c2ccccc2cc2ccccc12 [9-methylanthracene]
Conditions	Normal melting temperature [°C]	vapor or sublimation pressure
–	81.7	–
329.16 K	–	0.000185 kPa and 0.000194 kPa and 0.000184 kPa
331.19 K	–	0.000237 kPa and 0.000244 kPa and 0.000236 kPa
333.17 K	–	0.000271 kPa and 0.000297 kPa and 0.000286 kPa
335.16 K	–	0.00036 kPa and 0.00035 kPa and 0.000345 kPa
337.15 K	–	0.000427 kPa and 0.00045 kPa and 0.000435 kPa
339.16 K	–	0.000562 kPa and 0.000577 kPa and 0.000559 kPa
341.17 K	–	0.000666 kPa and 0.000681 kPa and 0.00066 kPa
343.21 K	–	0.000829 kPa and 0.000851 kPa and 0.000821 kPa
345.19 K	–	0.001004 kPa and 0.00104 kPa and 0.001011 kPa
